Measured values taken from patent US20210169959A1, “TERMINALIA FERDINANDIANA EXTRACT AND PRODUCTS CONTAINING EXTRACT OF TERMINALIA FERDINANDIANA FOR ANTIMICROBIAL OR ANTIBACTERIAL APPLICATIONS” (RISING PHOENIX INDUSTRIES PTY LTD, priority 2017, published 2021).
Converted amounts (≈) assume the structure as drawn. “And” between values parts separate entries of the source, which are not always exact repeats. Identical values can stand only once. Like-named read-outs stand apart in the source and are kept apart here.

Legend:
[1] = test system: Giardia duodenalis trophozoites, sheep S2 strain; test: G. duodenalis trophozoite proliferation, sheep S2 strain; conditions: for IC50 / IC50 Single Compound: compound alone; for Class of Interaction / ΣFIC50: in combination with ascorbic acid
[2] = test system: Giardia duodenalis trophozoites, ATCC203333; test: G. duodenalis trophozoite proliferation, ATCC203333 (metronidazole sensitive); conditions: for Class of Interaction / ΣFIC50: in combination with ascorbic acid
[3] = test system: Giardia duodenalis trophozoites, ATCC PRA-251; test: G. duodenalis trophozoite proliferation, ATCC PRA-251 (metronidazole resistant); conditions: for IC50: read-out: IC50 Single Compound; for inhibition of the metronidazole resistant strain (in words): pure compounds at 300 μg/mL; for Class of Interaction / ΣFIC50: in combination with ascorbic acid
[4] = test system: Giardia duodenalis trophozoites; test: G. duodenalis trophozoite proliferation (strain not specified or several strains together); format: cell-based; conditions: for inhibition at 300 µg/mL: Giardia duodenalis; for inhibition at 300 µg/mL / inhibition of trophozoite proliferation: pure compounds at 300 μg/mL; for IC50: compound alone, over the different strains
[5] = test system: Artemia nauplii; conditions: for Toxicity Compound Alone ALA: 24 hours exposure; for Toxicity Compound/ascorbic acid combination ALA: in combination with ascorbic acid
[6] = test system: human dermal fibroblast; conditions: for Toxicity Compound/ascorbic acid combination HDF: in combination with ascorbic acid
[7] = test system: Bacillus anthracis; test: microbe, parasite or virus in culture; format: cell-based
[8] = test system: Clostridium perfringens; test: microbe, parasite or virus in culture; format: cell-based
[9] = test system: Artemia franciscana nauplii; conditions: in vivo
[10] = Giardia duodenalis, in Ovis aries, read-out: IC50 Single Compound, Sheep S2 Strain
[11] = Giardia duodenalis, ATCC203333, read-out: IC50 Single Compound
[12] = metronidazole sensitive G. duodenalis strain
[13] = compound alone, 24 hours exposure
[14] = read-out: IC50 Single Compound, Sheep S2 Strain
[15] = read-out: IC50 Single Compound, ATCC203333, compound alone
[16] = all three G. duodenalis strains

O=C1O[C@H]([C@@H](O)CO)C(O)=C1O [Ascorbic acid, ascorbic acid]
IC50 [1, 10]: 1870 µg/mL and 10.6 mM | IC50 [2, 11]: 1910 µg/mL and 10.8 mM | IC50 ([3]; Giardia duodenalis): 2850 µg/mL and 16.2 mM | inhibition of the metronidazole resistant strain (in words) [3]: ineffective inhibitors | inhibition at 300 µg/mL [4, 12]: ~15%

O=C(O)C[C@H](C(=O)O)[C@H]1c2c(cc(O)c(O)c2O)C(=O)O[C@@H]1C(=O)O [Chebulic acid, chebulic acid]
Toxicity Compound Alone ALA [5]: 165 µg/mL | Toxicity Compound/ascorbic acid combination ALA [5]: 224 µg/mL | Toxicity Compound Alone HDF [6, 13]: 380 µg/mL | Toxicity Compound/ascorbic acid combination HDF [6]: 375 µg/mL | IC50 Single Compound ([1]; Sheep S2 Strain): 1283 mg/L (≈ 3.6 mM) | Class of Interaction ([1]; Sheep S2 Strain): Additive | ΣFIC50 ([1]; Sheep S2 Strain): 0.56 | IC50 [1, 14]: 3.6 mM | IC50 Single Compound ([2]; ATCC203333, compound alone): 985 mg/L (≈ 2.76 mM) | Class of Interaction ([2]; ATCC203333): Additive | ΣFIC50 ([2]; ATCC203333): 0.6 | IC50 [2, 15]: 2.76 mM | IC50 Single Compound ([3]; ATCC PRA-251, compound alone): 1220 mg/L (≈ 3.42 mM) | Class of Interaction ([3]; ATCC PRA-251): Additive | ΣFIC50 ([3]; ATCC PRA-251): 0.52 | IC50 ([3]; ATCC PRA-251, compound alone): 3.42 mM | inhibition of trophozoite proliferation [4, 16]: ~40%

O=C(O)[C@H]1O[C@@H](Oc2cccc(O)c2O)[C@H](O)[C@@H](O)[C@@H]1O [DPGA, 2,3-dihydroxyphenyl B-D-glucopyranosiduronic acid]
Toxicity Compound Alone ALA [5]: CND | Toxicity Compound/ascorbic acid combination ALA [5]: >500 µg/mL | Toxicity Compound Alone HDF [6, 13]: CND | Toxicity Compound/ascorbic acid combination HDF [6]: >500 µg/mL | IC50 Single Compound ([1]; Sheep S2 Strain): 47 mg/L (≈ 0.156 mM) | Class of Interaction ([1]; Sheep S2 Strain): Synergy | ΣFIC50 ([1]; Sheep S2 Strain): 0.11 | IC50 [1, 14]: 0.156 mM | IC50 Single Compound ([2]; ATCC203333, compound alone): 38 mg/L (≈ 0.126 mM) | Class of Interaction ([2]; ATCC203333): Synergy | ΣFIC50 ([2]; ATCC203333): 0.18 | IC50 [2, 15]: 0.126 mM | IC50 Single Compound ([3]; ATCC PRA-251, compound alone): 72 mg/L (≈ 0.238 mM) | Class of Interaction ([3]; ATCC PRA-251): Synergy | ΣFIC50 ([3]; ATCC PRA-251): 0.18 | ratios with synergistic interaction (isobologram) ([3]; DPGA:ascorbic acid combinations, metronidazole resistant strain): 30-50 % DPGA | IC50 ([3]; ATCC PRA-251, compound alone): 0.238 mM | ratios producing synergistic inhibition (isobologram) ([4]; DPGA:ascorbic acid combinations, metronidazole sensitive strains): ≤ 60 % DPGA | IC50 as share of the IC50 of ascorbic acid ([4]; components tested separately): approximately 5% | potency relative to ascorbic acid ([4]; components tested separately): ~20 times | IC50 [4]: 38 to 72 mg/L | IC50 ([4]; read-out: IC50): ≥ 0.126 mM and 0.126 to 0.238 mM | inhibition of trophozoite proliferation [4, 16]: 100%

O=C(O)c1cc(O)c(O)c(O)c1 [Gallic acid, gallic acid]
Toxicity Compound Alone ALA [5]: 132 µg/mL | Toxicity Compound/ascorbic acid combination ALA [5]: 147 µg/mL | Toxicity Compound Alone HDF ([6]; human, 24 h): 320 µg/mL | IC50 [1, 10]: 1150 µg/mL and 6.79 mM | IC50 Single Compound ([1]; Sheep S2 Strain): 1156 mg/L (≈ 6.8 mM) | Class of Interaction ([1]; Sheep S2 Strain): Synergy | ΣFIC50 ([1]; Sheep S2 Strain): 0.15 | Class of Interaction ([2]; ATCC203333): Synergy | ΣFIC50 ([2]; ATCC203333): 0.38 | IC50 [2, 11]: 1370 µg/mL and 8.04 mM | Class of Interaction ([3]; ATCC PRA-251): Synergy | ΣFIC50 ([3]; ATCC PRA-251): 0.32 | IC50 ([3]; Giardia duodenalis): 1260 µg/mL and 7.38 mM | inhibition at 300 µg/mL [4, 16]: ~50% | ratios inducing synergistic responses (isobologram) ([4]; gallic acid:ascorbic acid combinations, all three strains): 30-60 % gallic acid

O=C1O[C@@H]([C@H](O)[C@H](O)CO)[C@@H](O)[C@H]1O [Glucohepatonic acid lactone, glucohepatonic acid-1,4-lactone]
Toxicity Compound Alone ALA [5]: CND | Toxicity Compound/ascorbic acid combination ALA [5]: >500 µg/mL | Toxicity Compound Alone HDF [6, 13]: CND | Toxicity Compound/ascorbic acid combination HDF [6]: >500 µg/mL | IC50 Single Compound ([1]; Sheep S2 Strain): 1746 mg/L (≈ 8.39 mM) | Class of Interaction ([1]; Sheep S2 Strain): independent (independent (ΣFIC50 > 1.0-4.0)) | ΣFIC50 ([1]; Sheep S2 Strain): 1.19 | IC50 [1, 14]: 9.91 mM | IC50 Single Compound ([2]; ATCC203333, compound alone): 2255 mg/L (≈ 10.8 mM) | Class of Interaction ([2]; ATCC203333): Independent | ΣFIC50 ([2]; ATCC203333): 1.57 | IC50 [2, 15]: 12.8 mM | IC50 Single Compound ([3]; ATCC PRA-251, compound alone): 3536 mg/L (≈ 17 mM) | Class of Interaction ([3]; ATCC PRA-251): Independent | ΣFIC50 ([3]; ATCC PRA-251): 1.25 | inhibition of the metronidazole resistant strain (in words) [3]: ineffective inhibitors | IC50 ([3]; ATCC PRA-251, compound alone): 20.1 mM | inhibition of trophozoite proliferation [4, 12]: ~30%

O=C1O[C@H](CO)[C@@H](O)[C@H](O)[C@H]1O [Gluconolactone, gluconolactone]
Toxicity Compound Alone ALA [5]: CND | Toxicity Compound Alone HDF [6]: CND | inhibition of trophozoite proliferation [4, 16]: did not significantly affect the growth

Cc1cc(OCCCC(C)(C)C(=O)O)c(C)cc1O [HMDP, 5-(4-hydroxy-2,5-dimethylphenoxy)-2,2-dimethyl-pentanoic acid]
Toxicity Compound Alone ALA [5]: CND | Toxicity Compound/ascorbic acid combination ALA [5]: >500 µg/mL | Toxicity Compound Alone HDF [6, 13]: CND | Toxicity Compound/ascorbic acid combination HDF [6]: >500 µg/mL | IC50 [1, 10]: 1840 µg/mL and 6.89 mM | Class of Interaction ([1]; Sheep S2 Strain): Additive | ΣFIC50 ([1]; Sheep S2 Strain): 0.69 | Class of Interaction ([2]; ATCC203333): Additive | ΣFIC50 ([2]; ATCC203333): 0.81 | IC50 [2, 11]: 1580 µg/mL and 5.96 mM | Class of Interaction ([3]; ATCC PRA-251): Independent | ΣFIC50 ([3]; ATCC PRA-251): 1.1 | IC50 ([3]; Giardia duodenalis): 2030 µg/mL and 7.63 mM | inhibition at 300 µg/mL [4, 16]: ~20%

c1ncc2[nH]cnc2n1 [Purine, purine]
Toxicity Compound Alone ALA [5]: CND | Toxicity Compound Alone HDF [6]: CND | inhibition of trophozoite proliferation [4, 16]: did not significantly affect the growth

O=C(O)[C@]1(O)C[C@@H](O)[C@@H](O)[C@H](O)C1 [Quinic acid, quinic acid]
Toxicity Compound Alone ALA [5]: CND | Toxicity Compound/ascorbic acid combination ALA [5]: >500 µg/mL | Toxicity Compound Alone HDF [6]: CND | IC50 [1, 10]: 1170 µg/mL and 6.1 mM | Class of Interaction ([1]; Sheep S2 Strain): Additive | ΣFIC50 ([1]; Sheep S2 Strain): 0.51 | Class of Interaction ([2]; ATCC203333): Additive | ΣFIC50 ([2]; ATCC203333): 0.73 | IC50 [2, 11]: 1430 µg/mL and 7.43 mM | Class of Interaction ([3]; ATCC PRA-251): Additive | ΣFIC50 ([3]; ATCC PRA-251): 0.95 | IC50 ([3]; Giardia duodenalis): 1760 µg/mL and 9.13 mM | inhibition at 300 µg/mL [4, 16]: ~30%

O=C1O[C@H](CO)[C@@H](O)[C@H]1O [Ribolactone, ribonolactone]
Toxicity Compound Alone ALA [5]: CND | Toxicity Compound Alone HDF [6, 13]: CND | inhibition of trophozoite proliferation [4, 16]: did not significantly affect the growth

CC1(C)S[C@@H]2[C@H](NC(=O)[C@H](N)c3ccccc3)C(=O)N2[C@H]1C(=O)O [ampicillin]
zone of inhibition at 10 µg/disc ([7]; Bacillus anthracis, read-out: zones of inhibition): 10 ± 0.7 mm | zone of inhibition at 10 µg/disc ([8]; Clostridium perfringens, read-out: zones of inhibition): 13 ± 1 mm

[K+].[K+].[O]=[Cr](=[O])([O-])[O][Cr](=[O])(=[O])[O-] [potassium dichromate, Potassium dichromate, reference compound]
Toxicity Compound Alone ALA [5]: 37 µg/mL | mortality [9]: 100% | onset of nauplii death (time of exposure) [9]: ≤ 3 h | Toxicity Compound Alone HDF [6, 13]: 42 µg/mL

eujavonic acid
Toxicity Compound Alone ALA [5]: CND | Toxicity Compound/ascorbic acid combination ALA [5]: >500 µg/mL | Toxicity Compound Alone HDF [6, 13]: CND | Toxicity Compound/ascorbic acid combination HDF [6]: >500 µg/mL | IC50 Single Compound ([1]; Sheep S2 Strain): 1438 mg/L | Class of Interaction ([1]; Sheep S2 Strain): Additive | ΣFIC50 ([1]; Sheep S2 Strain): 0.58 | IC50 [1, 14]: 6.04 mM | IC50 Single Compound ([2]; ATCC203333, compound alone): 1683 mg/L | Class of Interaction ([2]; ATCC203333): Additive | ΣFIC50 ([2]; ATCC203333): 0.64 | IC50 [2, 15]: 7.07 mM | IC50 Single Compound ([3]; ATCC PRA-251, compound alone): 1850 mg/L | Class of Interaction ([3]; ATCC PRA-251): Additive | ΣFIC50 ([3]; ATCC PRA-251): 0.72 | IC50 ([3]; ATCC PRA-251, compound alone): 7.77 mM | inhibition of trophozoite proliferation [4, 16]: ~20%

penicillin
zones of inhibition ([7]; 10 μL extract per 5 mm disc, penicillin 2 μg, ampicillin 10 μg, mean ± SEM): 8.3±0.6 mm | zones of inhibition ([8]; 10 μL extract per 6 mm disc, penicillin 2 μg, ampicillin 10 μg, mean ± SEM): 12.3±0.3 mm
